Measurements published in patent US11618772B2 (Kineta Chronic Pain, LLC, priority 2014, dated 2023).

SMILES: C[C@@H](O)[C@@H]1NC(=O)[C@@H]2CSSC[C@@H](C(=O)N[C@@H](Cc3ccc(O)cc3)C(N)=O)NC(=O)[C@H](CCC(N)=O)NC(=O)[C@H](Cc3ccc(O)c(I)c3)NC(=O)[C@H](CCCNC(N)=O)NC(=O)[C@H](CSSC[C@H](NC(=O)CN)C(=O)N2)NC(=O)[C@H](CCCNC(=N)N)NC(=O)[C@@H]2CCCN2C(=O)[C@H](CC(=O)O)NC1=O [CSP-4-NH2, GCCTDPRCX11X12QCY-amide]
- stability in human plasma (Citrate): increased stability compared to CSP-4
